In patent US7186695B2 (priority 2001, dated 2007):

Key:
[1] = test system: chick chorioallantoic membrane (CAM) angiogenesis; assay: Chick chorioallantoic membrane (CAM) angiogenesis assay; assay type: in vivo; conditions: 5, 10 or 50 μg per pellet, 48 hr
Experimental: FIG. 22. Inhibition of CAM angiogenesis by GSAO. Fertilised 3 day-old white Leghorn eggs were cracked, the embryos placed in petri dishes and incubated for 3 days. Methylcellulose discs containing 5, 10 or 50 μg of either GSAA or GSAO were then applied to the CAM of individual embryos and incubated for 48 hr. The CAMs were scored for no obvious effect or inhibition of angiogenesis as defined by avascular zones. Photographs of CAM's after incubation with discs containing 10 μg of either GSM (top) or GSAO (bottom) is shown in the left hand panel. The dotted circle indicates the placement of the disc.
The chick CAM assay has been used for the detection and analysis of angiogenesis inhibition (Nguyen et al., 1994). Fertilised 3 day-old white Leghorn eggs (Spafas, Norwich, Conn.) were cracked, the embryos with intact yolks placed in 20×100 mm petri dishes and incubated for 3 days at 37° C. and 3% CO2 (Folkman, 1995). Methylcellulose (Fisher Scientific, Fair Lawn, N.J.) discs containing 5, 10 or 50 μg of either GSAA or GSAO were then applied to the CAM of individual embryos and incubated for 48 hr at 37° C. and 3% CO2. The discs were made by desiccation of GSAA or GSAO in 10 μl of 0.45% methycellulose on teflon rods. The CAMs were observed using a stereomicroscope and scored for no obvious effect or inhibition of CAM angiogenesis as defined by avascular zones. On some occasions CAM blood vessels were injected with India ink and photographed.

[2] = test system: BAE cells
[3] = test system: HDMVE cells; assay: Endothelial cell tube formation in Matrigel; assay type: cell-based, human; conditions: 18 hours; for effect on tube formation: 0.1, 1 or 100 μM
Experimental: FIG. 21. GSAO perturbs endothelial cell tube formation in Matrigel. Matrigel (100 μl) was added to wells of 96 well plates and allowed to gel for 60 minutes at 37° C. HDMVE cells (10,000 cells per well) in complete media containing 0.1, 1 or 100 μM GSAA or GSAO were seeded onto the Matrigel and the plates were incubated in 5% CO2, 37° C. The phase contrast micrographs were taken after 18 hours incubation.
Endothelial cells arrange into tube-like structures when seeded onto three-dimensional matrices such as the extracellular matrix preparation, Matrigel, or collagen. The tubes can be considered to represent immature blood vessels. Matrigel (100 μl, Becton Dickinson, Bedford, Mass.) was added to wells of 96 well plates (Gibco BRL, Gaithersburg, Md.) and allowed to gel for 60 minutes at 37° C. Human dermal microvascular endothelial (HDMVE) cells were harvested and cultured as described by Stathakis et al. (1997). HDMVE cells (8,000 cells per well) in 150 μl of M199 (Gibco BRL, Gaithersburg, Md.) media containing 30% pooled human serum, 50 μg per mL Heparin (Sigma, St. Louis, Mo.), 100 μg per mL Endothelial Cell Growth Supplement (Gibco BRL, Gaithersburg, Md.) and 0.1, 1 or 100 μM GSM or GSAO were seeded onto the Matrigel and the plates were incubated for 18 hours in 5% CO2, 37° C. Phase contrast micrographs of the wells were collected.

[4] = test system: adjuvant-induced arthritis; conditions: rat, in vivo
[5] = test system: Human T cells (A3.01); assay: Membrane permeability, tritiated GSAO in cytosol; assay type: in vitro ADME; conditions: 50 μM GSAO
Experimental: Human T cells (A3.01) or adherent BAE cells were incubated with complete medium containing 50 μM GSAO and ˜100,000 counts per minute of tritiated GSAO for 1 or 72 hours. Tritiated GSAO was prepared exactly as described for GSAO except that glycine-2-^3H-glutathione (NEN, Boston, Mass.) was used in place of cold glutathione. The cells were washed and lysed by two cycles of freezing and thawing. The cytosolic constituents were collected by differential centrifugation (Ausbel et al., 2000) and the tritiated GSAO was measured. Only 0.5% of the total tritiated GSAO was found in the T cell cytosol and 0.04% in the BAE cytosol after 1 hour. Moreover, only 4.5% of the GSAO penetrated the T cell membrane after 72 hours of culture.

[6] = molecular target: T1, Thioredoxin (Homo sapiens, UniProt P10599); assay: Inhibition of thioredoxin-mediated reduction of 70 kDa fibronectin fragment; assay type: biochemical; conditions: 1 μM thioredoxin, 10 minutes
T1 construct: purchased American Diagnostica, Greenwich, Conn; host or cells: E. coli
T1 sequence (P10599 1-105): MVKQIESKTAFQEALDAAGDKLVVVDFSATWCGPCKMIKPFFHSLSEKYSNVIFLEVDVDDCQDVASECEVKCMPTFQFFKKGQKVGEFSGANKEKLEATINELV
Experimental: FIG. 13. Inhibition of thioredoxin by GSAO. Thioredoxin (1 μM) was incubated with GSAO (0, 1 or 10 μM) for 10 minutes at room temperature in 20 mM Hepes, 0.14 M NaCl, pH 7.4 buffer. The 70 kDa fibronectin fragment (10 μg per mL) was added and incubated for 5 minutes at room temperature. The reactions were labelled with MPB (100 μM) for 10 minutes at 37° C. The MPB was quenched with GSH (200 μM) for 10 minutes at 37° C. followed by Iodoacetamide (400 μM) for 10 minutes at room temperature. The MPB-labelled 70 kDa fragment was resolved on 5–15% SDS-PAGE, transferred to PVDF membrane and the MPB detected by blotting with streptavidin peroxidase. The positions of Mr markers are shown at left.
It was observed that thioredoxin reduced one or more protein disulfide bonds in the 70 kDa N-terminal fragment of fibronectin.

[7] = test system: BAE cells; assay: cells; conditions: Bos taurus, Endothelial cell, 24 h, read-out: IC50 for viability

Compound: N[C@@H](CCC(=O)N[C@@H](CSCC(=O)Nc1ccc([As](=O)(O)O)cc1)C(=O)NCC(=O)O)C(=O)O [GSAA, 4-(N-(S-glutathionylacetyl)amino)phenylarsonic acid, reference compound]
- adverse effect on the wellbeing of the chick embryo [1]: Neither GSAA nor GSAO had any apparent adverse effect
- inhibition of CAM angiogenesis (avascular zones) [1]: did not inhibit CAM angiogenesis
- inhibition of CAM angiogenesis (avascular zones) ([1]; listed as GSM): no effects
- effect on BAE viability [2]: no significant effect
- effect on tube formation [3]: no apparent effect

Compound: NC(CCC(=O)NC(CSCC(=O)Nc1ccc([As]=O)cc1)C(=O)NCC(=O)O)C(=O)O (stereo not drawn) [GSAO, 4-(N-(S-glutathionylacetyl)amino)-phenylarsenoxide]
- development of arthritis measured by arthritis severity score, gait, paw volume or weight loss [4]: effectively blocked
- signs or symptoms of toxicity for the rats [4]: no signs or symptoms of toxicity
- weight gain, GSCA vs GSAO treated rats ([4]; 2 mg/kg): no difference in weight gain
- total tritiated GSAO found in the cytosol ([5]; 1 hour): 0.5%
- GSAO that penetrated the T cell membrane ([5]; 72 hours of culture): 4.5%
- adverse effect on the wellbeing of the chick embryo [1]: Neither GSAA nor GSAO had any apparent adverse effect
- inhibition of CAM angiogenesis (avascular zones) [1]: inhibited angiogenesis in the CAM in a concentration-dependent manner
- inhibition at 1 µM ([6]; 1 μM GSAO): ~50%
- inhibition of thioredoxin activity ([6]; 10 μM GSAO): completely inhibited
- IC50 [7]: ~100 µM
- effect on tube formation [3]: perturbed tube formation
- concentration at which effects on tube formation were apparent [3]: 0.1 µM
- concentration at which effects on tube formation were marked [3]: 100 µM
